{"source": "ChEMBL document CHEMBL4002643", "about": "“Tubulin-binding dibenz[c,e]oxepines: Part 2. Structural variation and biological evaluation as tumour vasculature disrupting agents” (Bioorg Med Chem, 2017)", "key": {"[1]": {"experiment": "Inhibition of porcine tubulin assembly measured for 30 mins by UV/visible spectrophotometric method", "set-up": "species or system Sus scrofa"}, "K562": {"test_system": "K562", "experiment": "Cytotoxicity against human K562 cells assessed as growth inhibition after 5 days by MTT assay", "type": "functional, cell-based", "details": "K562, 120 h"}, "DLD-1 [2]": {"test_system": "DLD-1", "experiment": "Induction of vascular shutdown in human DLD1 cells xenografted in Balb/C immunodeficient nude mouse at 400 mg/kg, iv by […] dye-based microscopic method", "type": "functional, organism-based", "details": "TDE = time-dependent effect"}, "DLD-1 [3]": {"test_system": "DLD-1", "experiment": "Induction of vascular shutdown in human DLD1 cells xenografted in Balb/C immunodeficient nude mouse assessed as vascular element counts at 400 mg/kg, iv at 24 hrs post dose by […] dye-based microscopic method (reference value: 3.73 +/- 3.1%)", "type": "functional"}, "DLD-1 [4]": {"test_system": "DLD-1", "experiment": "Vascular disrupting activity in human DLD1 cells xenografted in Balb/C immunodeficient nude mouse assessed as induction of necrosis by measuring necrotic area at 400 mg/kg, iv at 1 hr post dose by haematoxylin and eosin staining-based assay (reference value: 19 +/- 9.6%)", "type": "functional"}, "DLD-1 [5]": {"test_system": "DLD-1", "experiment": "Induction of vascular shutdown in human DLD1 cells xenografted in Balb/C immunodeficient nude mouse assessed as vascular element counts at 400 mg/kg, iv at 4 hrs post dose by […] dye-based microscopic method (reference value: 3.73 +/- 3.1%)", "type": "functional"}, "DLD-1 [6]": {"test_system": "DLD-1", "experiment": "Induction of vascular shutdown in human DLD1 cells xenografted in Balb/C immunodeficient nude mouse assessed as vascular element counts at 400 mg/kg, iv at 1 hr post dose by […] dye-based microscopic method (reference value: 3.73 +/- 3.1%)", "type": "functional"}, "DLD-1 [7]": {"test_system": "DLD-1", "experiment": "Vascular disrupting activity in human DLD1 cells xenografted in Balb/C immunodeficient nude mouse assessed as induction of necrosis by measuring necrotic area at 400 mg/kg, iv at 4 hrs post dose by haematoxylin and eosin staining-based assay (reference value: 19 +/- 9.6%)", "type": "functional"}, "DLD-1 [8]": {"test_system": "DLD-1", "experiment": "Vascular disrupting activity in human DLD1 cells xenografted in Balb/C immunodeficient nude mouse assessed as induction of necrosis by measuring necrotic area at 400 mg/kg, iv at 24 hrs post dose by haematoxylin and eosin staining-based assay (reference value: 19 +/- 9.6%)", "type": "functional"}, "[9]": {"experiment": "Inhibition of tubulin (unknown origin) assembly preincubated for 30 mins followed by GTP addition by spectrophotometric method", "set-up": "species or system Homo sapiens"}}}
{"smiles": "COc1ccc(/C=C\\c2cc(OC)c(OC)c(OC)c2)cc1OP(=O)(O)O", "note": "[FOSBRETABULIN DISODIUM]", "values": [{"measurement": "IC50", "setting": "[1]", "value": 900, "unit": "nM"}, {"measurement": "IC50", "setting": "K562", "value": 720, "unit": "nM"}]}
{"smiles": "COc1cc2c(c(OC)c1OC)-c1ccc(OP(=O)([O-])[O-])cc1[C@@H](NC(C)=O)CC2.[Na+].[Na+]", "values": [{"measurement": "Activity", "setting": "DLD-1 [2]", "value": "Tde"}, {"measurement": "Activity", "setting": "DLD-1 [3]", "value": 0.42, "unit": "%"}, {"measurement": "Activity", "setting": "DLD-1 [4]", "value": 23.2, "unit": "%"}, {"measurement": "Activity", "setting": "DLD-1 [5]", "value": 0.12, "unit": "%"}, {"measurement": "Activity", "setting": "DLD-1 [6]", "value": 0.03, "unit": "%"}, {"measurement": "Activity", "setting": "DLD-1 [7]", "value": 22.3, "unit": "%"}, {"measurement": "Activity", "setting": "DLD-1 [8]", "value": 91, "unit": "%"}]}
{"smiles": "COc1ccc2c(c1)[C@@H](NC(C)=O)CCc1cc(OC)c(OC)c(OC)c1-2", "values": [{"measurement": "IC50", "setting": "[9]", "value": 700, "unit": "nM"}]}
{"smiles": "COc1ccc2c(c1OS(=O)(=O)C(F)(F)F)COCc1cc(OC)c(OC)c(OC)c1-2", "values": [{"measurement": "IC50", "setting": "[1]", "value": 15000, "unit": "nM"}, {"measurement": "IC50", "setting": "K562", "value": 250, "unit": "nM"}]}
